# Reference: paper PMC4948780, “PARP Inhibitors in Clinical Use Induce Genomic Instability in Normal Human Cells” (PLoS ONE, 2016)
# pIC50: −log10 of the molar value.
# Legend:
# [1] = test system: Brca1^-/- 236.44 mES cells; assay: Clonogenic survival assay, mES cells; assay type: cell-based, mouse
# Source text: (§1) Human mammary epithelial cell lines used included non-tumorigenic diploid MCF-10A, HMEC-hTERT and tumorigenic MDA-MB-468 (basal) and MCF-7 (luminal). […] Blood samples were obtained from normal donor participants. The participants provided written informed consent to IRB protocol #95–054 approved by the Institutional Review Board at MSKCC. The original signed consent is then sent to the research participant’s medical record and a copy of the consent is given to the participant. The EBV-transformed B-lymphocyte cell line (EBV-BL) was generated by transformation of peripheral blood mononuclear cells (PBMC) with the B95.8 strain of EBV, as previously described. Primary T cells were generated from PBMC from two normal donors by non-specific activation with phytohemagglutinin and cultured in RPMI1640 and human serum AB for 4–14 days before use. E14 mES cell line was provided by M. Hooper, Brca1^-/- 236.44 mES cell line was provided by B. H. Koller, Brca2^lex1/lex2 mES cell line was provided by P. Hasty and Lexicon Genetics. E14 wild-type, Brca1^-/- 236.44, and Brca2^lex1/lex2 mES cell lines were cultured in standard ES media. Brca1^-/- 236.44 cells express a BRCA1 peptide deleted for sequences encoded by exon 11 [52], while Brca2^lex1/lex2 cells express a BRCA2 peptide deleted for the terminal exon 27 [53]. […] Veliparib and BSI-201 were purchased from Chemie Tek. The compounds were dissolved in DMSO and PBS. For clonogenic survival assays, MCF-10A (1000 cells), HMEC-hTERT (1000 cells), MDA-MB-468 (1500 cells) and mouse ES cell (2000 cells) were seeded, vehicle control or inhibitors were added at the indicated concentration 24 hours after seeding and changed every three days for continuous treatment. At 7–14 days, colonies were fixed with methanol and stained with Giemsa. For EBV-BL (6 × 10^6) and primary T cells (3.6 × 10^6) were continuously exposed to the indicated concentration of drug for 10 days at 0.6 × 10^6 cells/ml. Viable cells were scored by trypan blue exclusion.
# [2] = test system: Brca2^lex1/lex2 mES cells; assay: Clonogenic survival assay, mES cells; assay type: cell-based, mouse
# Source text: as §1
# [3] = test system: repair-proficient human cells; assay: SCE assay, summary over the human cell types; assay type: cell-based; settings: primary T cells; brief exposure
# Source text: Human mammary epithelial cell lines used included non-tumorigenic diploid MCF-10A, HMEC-hTERT and tumorigenic MDA-MB-468 (basal) and MCF-7 (luminal). […] Blood samples were obtained from normal donor participants. The participants provided written informed consent to IRB protocol #95–054 approved by the Institutional Review Board at MSKCC. The original signed consent is then sent to the research participant’s medical record and a copy of the consent is given to the participant. The EBV-transformed B-lymphocyte cell line (EBV-BL) was generated by transformation of peripheral blood mononuclear cells (PBMC) with the B95.8 strain of EBV, as previously described. Primary T cells were generated from PBMC from two normal donors by non-specific activation with phytohemagglutinin and cultured in RPMI1640 and human serum AB for 4–14 days before use. E14 mES cell line was provided by M. Hooper, Brca1^-/- 236.44 mES cell line was provided by B. H. Koller, Brca2^lex1/lex2 mES cell line was provided by P. Hasty and Lexicon Genetics. E14 wild-type, Brca1^-/- 236.44, and Brca2^lex1/lex2 mES cell lines were cultured in standard ES media. […] Viable cells were scored by trypan blue exclusion.
# To prepare metaphase spreads, exponentially growing cells were treated with 0.1–0.3 μg/ml of colcemid for 1–6 hr. […] To visualize SCEs, the doubling time for each cell type was determined. […]
# MDA-MB-468 = assay: Chromosomal aberrations on metaphase spreads (Giemsa); assay type: cell-based, human; settings: 1 μM, 24 hrs
# Method: (§2) To prepare metaphase spreads, exponentially growing cells were treated with 0.1–0.3 μg/ml of colcemid for 1–6 hr. Cells were collected and incubated in hypotonic solution (0.56% KCl), fixed in methanol: acetic acid (3:1), spotted to slides and air-dried. To measure chromosomal aberrations, the slides were stained with 2% Giemsa/Sorensen’s buffer. To visualize SCEs, the doubling time for each cell type was determined. Cells were incubated with 10 μM BrdU for two cell cycles. After metaphase spreads were prepared, the slides were treated with 0.5 μg/ml Hoechst 33258. The slides were exposed to black light for 20–60 min, incubated at 60°C for 2 hr, and stained in 4–10% Giemsa/Sorensen’s buffer.
# MCF-7 = assay: as above; assay type: cell-based, human; settings: 1 μM, 24 hrs
# Method: as §2
# primary T cell 1 = assay: as above; assay type: cell-based, human; settings: 1 μM, 24 hrs
# Method: as §2
# [4] = Mus musculus, read-out: IC50 (clonogenic survival)
# [5] = 100 metaphases, radial and telomere association counted as two
smiles,measurement,setting,value
O=C(c1cc(Cc2n[nH]c(=O)c3ccccc23)ccc1F)N1CCN(C(=O)C2CC2)CC1 [olaparib],pIC50,[1]; [4],8.60
same,enhanced sensitivity of cells lacking wild-type BRCA1 vs wild-type cells,"[1]; ratio of IC50, wild-type / Brca1^-/- 236.44",240 fold
same,pIC50,[2]; [4],7.89
same,enhanced sensitivity of cells lacking wild-type BRCA2 vs wild-type cells,"[2]; ratio of IC50, wild-type / Brca2^lex1/lex2",46 fold
same,average SCEs per metaphase,[3],~ 40
same,total chromatid-type aberrations / metaphase (mean ± SEM),MDA-MB-468,0.67 ± 0.13
same,chromatid-type radial chromosome,MDA-MB-468; 100 metaphases,5
same,chromatid-type telomere association,MDA-MB-468; 100 metaphases,3
same,chromosome-type dicentric,MDA-MB-468; 100 metaphases,4
same,chromosome-type gap/break,MDA-MB-468; 100 metaphases,5
same,total chromatid-type aberrations,MDA-MB-468; [5],67
same,total chromatid-type aberrations / metaphase (mean ± SEM),MCF-7,1.39 ± 0.14
same,chromatid-type radial chromosome,MCF-7; 100 metaphases,4
same,chromatid-type telomere association,MCF-7; 100 metaphases,1
same,chromosome-type dicentric,MCF-7; 100 metaphases,4
same,chromosome-type gap/break,MCF-7; 100 metaphases,8
same,total chromatid-type aberrations / metaphase (mean ± SEM),primary T cell 1,0.44 ± 0.07
same,chromatid-type radial chromosome,primary T cell 1; 100 metaphases,2
same,chromatid-type telomere association,primary T cell 1; 100 metaphases,0
same,chromosome-type dicentric,primary T cell 1; 100 metaphases,3
same,chromosome-type gap/break,primary T cell 1; 100 metaphases,0
same,total chromatid-type aberrations,primary T cell 1; [5],44
